How the values were obtained:
Plasmopara viticola = conditions: 20 ppm of the active substance, vines
Phytophthora infestans = type: in vivo; conditions: 20 ppm of the active substance; test a) or b) not distinguished

Row | SMILES | melting point | curative action (Plasmopara viticola) | suppression of infestation (Phytophthora infestans)
1 | CCO/N=C(/C(C)=NOCc1ccccc1C(=NOC)C(=O)OC)c1ccc(OCc2cccc(C(F)(F)F)c2)cc1 | 68 to 70 °C |  | 
2 | CCCCOc1ccc(C(=NOC)C(C)=NOCc2ccccc2C(=COC)C(=O)OC)cc1 (mixture of isomers) [Compound 1.33] |  | complete curative action | completely suppressed
3 | COC=C(C(=O)OC)c1ccccc1CON=C(C)C(=NOC)c1ccc(OCC2CC2(Cl)Cl)c(F)c1 (single isomer, unassigned) [Compound 1.4] |  | complete curative action | completely suppressed
4 | COC=C(C(=O)OC)c1ccccc1CON=C(C)C(=NOC)c1ccc(OCC2CC2(Cl)Cl)c(Cl)c1 (single isomer, unassigned) [Compound 1.19] |  |  | completely suppressed
5 | COC=C(C(=O)OC)c1ccccc1CON=C(C)C(=NOC)c1ccc(OCC2CC2(Cl)Cl)c(Cl)c1 (single isomer, unassigned) [Compound 1.20] |  |  | completely suppressed
6 | CCC(C)Oc1ccc(C(=NOC)C(C)=NOCc2ccccc2C(=COC)C(=O)OC)cc1 (single isomer, unassigned) [Compound 1.29] |  | complete curative action | 
7 | CCC(C)Oc1ccc(C(=NOC)C(C)=NOCc2ccccc2C(=COC)C(=O)OC)cc1 (single isomer, unassigned) [Compound 1.30] |  | complete curative action | completely suppressed
8 | COC=C(C(=O)OC)c1ccccc1CON=C(C)C(=NOC)c1cc(F)ccc1C (single isomer, unassigned) [Compound 1.52] |  | complete curative action | 
9 | CCCOc1ccc(C(=NOC)C(C)=NOCc2ccccc2C(=COC)C(=O)OC)c(F)c1 (single isomer, unassigned) [Compound 1.63B] |  | complete curative action | 
10 | CCCCOc1ccc(C(=NOC)C(C)=NOCc2ccccc2C(=COC)C(=O)OC)c(F)c1 (single isomer, unassigned) [Compound 1.71A] |  | complete curative action | 
11 | CCCCOc1ccc(C(=NOC)C(C)=NOCc2ccccc2C(=COC)C(=O)OC)c(F)c1 (single isomer, unassigned) [Compound 1.71B] |  | complete curative action | 
12 | COC=C(C(=O)OC)c1ccccc1CON=C(C)C(=NOC)c1ccc(OC(C)C)cc1F (single isomer, unassigned) [Compound 1.73A] |  | complete curative action | 
13 | COC=C(C(=O)OC)c1ccccc1CON=C(C)C(=NOC)c1ccc(OC(C)C)cc1F (single isomer, unassigned) [Compound 1.73B] |  | complete curative action | 
14 | CCC(C)Oc1ccc(C(=NOC)C(C)=NOCc2ccccc2C(=COC)C(=O)OC)c(F)c1 (single isomer, unassigned) [Compound 1.75A] |  |  | completely suppressed
15 | COC=C(C(=O)OC)c1ccccc1CON=C(C)C(=NOC)c1ccc(OC)cc1C (single isomer, unassigned) [Compound 1.78] |  | complete curative action | 
16 | COC=C(C(=O)OC)c1ccccc1CON=C(C)C(=NOC)c1ccc(OCC2CC2(Cl)Cl)c(F)c1 (stereo not drawn) [Compound 1.3, (2-{2-[4-(2,2-Dichloro-cyclopropylmethoxy)-3-fluoro-phenyl]-2-methoxyimino-1-methyl-ethylideneaminooxymethyl}phenyl)-3-methoxy-acrylic acid methyl ester] |  | complete curative action | completely suppressed
17 | COC=C(C(=O)OC)c1ccccc1CON=C(C)C(=NOC)c1cc(F)c(OCC2CC2(Cl)Cl)cc1F (stereo not drawn) [Compound 1.13, (2-{2-[4-(2,2-Dichloro-cyclopropylmethoxy)-2,5-difluoro-phenyl]-2-methoxyimino-1-methyl-ethylideneaminooxymethyl}-phenyl)-3-methoxy-acrylic acid methyl ester] |  | complete curative action | completely suppressed
18 | COC=C(C(=O)OC)c1ccccc1CON=C(C)C(=NOC)c1ccc(OCC(C)C)cc1 [Compound 1.31, {2-[2-(4-Isobutoxy-phenyl)-2-methoxyimino-1-methyl-ethylideneaminooxymethyl]-phenyl}-3-methoxy-acrylic acid methyl ester] |  | complete curative action | completely suppressed
19 | CCC(C)Oc1ccc(C(=NOC)C(C)=NOCc2ccccc2C(=NOC)C(=O)OC)cc1 (stereo not drawn) [Compound 2.21] |  | complete curative action | 

Row | SMILES | melting point | curative action (Plasmopara viticola) | suppression of infestation (Phytophthora infestans)
20 | CON=C(C(C)=NOCc1ccccc1C(=NOC)C(=O)OC)c1ccc(OCC(C)C)cc1 [Compound 2.22] |  | complete curative action | 
21 | CON=C(C(C)=NOCc1ccccc1C(=NOC)C(=O)OC)c1ccc(Oc2cccc(Br)c2)cc1 [Compound 2.25] |  | complete curative action | 
22 | CON=C(C(C)=NOCc1ccccc1C(=NOC)C(=O)OC)c1ccc(Oc2ccc(C)cc2)cc1 [Compound 2.27] |  | complete curative action | completely suppressed
23 | CON=C(C(C)=NOCc1ccccc1C(=NOC)C(=O)OC)c1cccc(Oc2cccc(F)c2)c1 [Compound 2.32] |  |  | completely suppressed
24 | CON=C(C(C)=NOCc1ccccc1C(=NOC)C(=O)OC)c1ccc(OC[Si](C)(C)C)cc1 [Compound 2.33] |  | complete curative action | 
25 | CCCOc1ccc(C(=NOC)C(C)=NOCc2ccccc2C(=NOC)C(=O)OC)c(F)c1 [Compound 2.45, 2-Methoxyimino-(2-{2-methoxyimino-1-methyl-2-[2-fluoro-4-n-propoxy-phenyl]-ethylideneaminooxymethyl}-phenyl)-acetic acid methyl ester] |  | complete curative action | 
26 | CCOc1ccc(C(=NOC)C(C)=NOCc2ccccc2C(=NOC)C(=O)OC)c(F)c1 [Compound 2.49, 2-Methoxyimino-(2-{2-methoxyimino-1-methyl-2-[2-fluoro-4-ethoxy-phenyl]-ethylideneaminooxymethyl}-phenyl)-acetic acid methyl ester] |  | complete curative action | 
27 | CCC(C)Oc1ccc(C(=NOC)C(C)=NOCc2ccccc2C(=NOC)C(=O)OC)c(F)c1 (stereo not drawn) [Compound 2.55] |  | complete curative action | completely suppressed
28 | CON=C(C(C)=NOCc1ccccc1C(=NOC)C(=O)OC)c1ccc(OC)cc1C [Compound 2.58] |  | complete curative action | completely suppressed
29 | CCC(C)Oc1ccc(C(=NOC)C(C)=NOCc2ccccc2C(=NOC)C(=O)NC)cc1 (stereo not drawn) [Compound 3.21] |  | complete curative action | 
30 | CNC(=O)C(=NOC)c1ccccc1CON=C(C)C(=NOC)c1ccc(OCC(F)(F)F)cc1 [Compound 3.43] |  | complete curative action | 
31 | CCCOc1ccc(C(=NOC)C(C)=NOCc2ccccc2C(=NOC)C(=O)NC)c(F)c1 [Compound 3.46, 2-Methoxyimino-2-(2-{2-methoxyimino-1-methyl-2-[2-fluoro-4-n-propoxy-phenyl]-ethylideneaminooxymethyl}-phenyl)-N-methyl-acetamide] |  | complete curative action | 
32 | CCC(C)Oc1ccc(C(=NOC)C(C)=NOCc2ccccc2C(=NOC)C(=O)NC)c(F)c1 (stereo not drawn) [Compound 3.56] |  | complete curative action | completely suppressed
33 | CCOc1ccc(C(=NOC)C(C)=NOCc2ccccc2C(=NOC)C(=O)NC)c(C)c1 [Compound 3.60, 2-Methoxyimino-2-(2-{2-methoxyimino-1-methyl-2-[4-ethoxy-2-methyl-phenyl]-ethylideneaminooxymethyl}-phenyl)-N-methyl-acetamide] |  |  | completely suppressed
34 | COC=C(C(=O)OC)c1ccccc1CON=C(C)C(=NOCC=C(Cl)Cl)c1ccc(OC)cc1 [Compound 4.3] |  | complete curative action | completely suppressed
35 | CCCOc1ccc(C(=NOCC)C(C)=NOCc2ccccc2C(=COC)C(=O)OC)cc1 [Compound 4.57] |  | complete curative action | completely suppressed
36 | CCCOc1ccc(C(=NOCC)C(C)=NOCc2ccccc2C(=NOC)C(=O)OC)cc1 [Compound 4.58] |  | complete curative action | 
37 | CCCON=C(C(C)=NOCc1ccccc1C(=COC)C(=O)OC)c1ccc(OCCC)cc1 [Compound 4.60] |  | complete curative action | completely suppressed
38 | C#CCON=C(C(C)=NOCc1ccccc1C(=NOC)C(=O)NC)c1ccc(OCCC)cc1 [Compound 4.65] |  | complete curative action | 

From patent US6420423B1 (priority 1995, dated 2002)
